In ChEMBL document CHEMBL1137017, “In vitro antiviral activity and cross-resistance profile of PL-100, a novel protease inhibitor of human immunodeficiency virus type 1” (Antimicrob Agents Chemother, 2007):

Columns and labels:
[1] = system: Human immunodeficiency virus 1; test: Resistance index, ratio of EC50 for HIV1 with protease 46I/50L/54V/82A mutation to EC50 for wild type HIV1 NL4-3 in HEK293 cells after 48 hrs by replication-deffective luciferase reporter gene-based phenotypic assay; format: functional
[2] = system: Human immunodeficiency virus 1; test: Resistance index, ratio of EC50 for HIV1 with protease 33I/46I/84V/90M mutation to EC50 for wild type HIV1 NL4-3 in HEK293 cells after 48 hrs by replication-deffective luciferase reporter gene-based phenotypic assay; format: functional
[3] = system: Human immunodeficiency virus 1; test: Resistance index, ratio of EC50 for HIV1 with protease 37T/41K/70E mutation to EC50 for wild type HIV1 NL4-3 in HEK293 cells after 48 hrs by replication-deffective luciferase reporter gene-based phenotypic assay; format: functional
[4] = system: Human immunodeficiency virus 1; test: Resistance index, ratio of EC50 for HIV1 with protease 46I/53L/82T/90M mutation to EC50 for wild type HIV1 NL4-3 in HEK293 cells after 48 hrs by replication-deffective luciferase reporter gene-based phenotypic assay; format: functional
[5] = system: Human immunodeficiency virus 1; test: Resistance index, ratio of EC50 for HIV1 with protease 54V/84V mutation to EC50 for wild type HIV1 NL4-3 in HEK293 cells after 48 hrs by replication-deffective luciferase reporter gene-based phenotypic assay; format: functional
[6] = system: Human immunodeficiency virus 1; test: Resistance index, ratio of EC50 for HIV1 with protease 54V/82A mutation to EC50 for wild type HIV1 NL4-3 in HEK293 cells after 48 hrs by replication-deffective luciferase reporter gene-based phenotypic assay; format: functional
[7] = system: Human immunodeficiency virus 1; test: Resistance index, ratio of EC50 for HIV1 with protease 46I mutation to EC50 for wild type HIV1 NL4-3 in HEK293 cells after 48 hrs by replication-deffective luciferase reporter gene-based phenotypic assay; format: functional
Protease = Protease (Human immunodeficiency virus 1, UniProt Q9YQ12); test: Inhibition of HIV1 protease
Protease, sequence (Q9YQ12 whole entry): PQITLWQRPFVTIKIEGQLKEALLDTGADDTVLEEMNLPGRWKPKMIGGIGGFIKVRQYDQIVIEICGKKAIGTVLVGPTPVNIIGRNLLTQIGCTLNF

[8] = system: Human immunodeficiency virus 1; test: Antiviral activity against wild type HIV1 NL4-3 infected in MT4 cells after 6 days by MTT assay; format: functional, organism-based; details: Human immunodeficiency virus 1, NL4-3, MT4, 144 h
[9] = system: Human immunodeficiency virus 1; test: Antiviral activity against wild type HIV1 NL4-3 in HEK293 cells after 48 hrs by replication-deffective luciferase reporter gene-based phenotypic assay; format: functional, organism-based; details: Human immunodeficiency virus 1, NL4-3, HEK293, 48 h
[10] = system: Human immunodeficiency virus 1; test: Resistance index, ratio of EC50 for HIV1 with protease 46I/82T/84V/90M mutation to EC50 for wild type HIV1 NL4-3 in HEK293 cells after 48 hrs by replication-deffective luciferase reporter gene-based phenotypic assay; format: functional
[11] = system: Human immunodeficiency virus 1; test: Resistance index, ratio of EC50 for HIV1 with protease 33I/46I/84V/88D/90M mutation to EC50 for wild type HIV1 NL4-3 in HEK293 cells after 48 hrs by replication-deffective luciferase reporter gene-based phenotypic assay; format: functional
[12] = system: Human immunodeficiency virus 1; test: Resistance index, ratio of EC50 for HIV1 with protease 48V/54V/82A/90M mutation to EC50 for wild type HIV1 NL4-3 in HEK293 cells after 48 hrs by replication-deffective luciferase reporter gene-based phenotypic assay; format: functional
[13] = system: Human immunodeficiency virus 1; test: Resistance index, ratio of EC50 for non-B type HIV1 with protease 32I/47A mutation to EC50 for wild type HIV1 NL4-3 in HEK293 cells after 48 hrs by replication-deffective luciferase reporter gene-based phenotypic assay; format: functional
[14] = system: Human immunodeficiency virus 1; test: Resistance index, ratio of EC50 for non-B type HIV1 with protease 46I/47V/84V mutation to EC50 for wild type HIV1 NL4-3 in HEK293 cells after 48 hrs by replication-deffective luciferase reporter gene-based phenotypic assay; format: functional
[15] = system: Human immunodeficiency virus 1; test: Resistance index, ratio of EC50 for HIV1 with protease 33F/46I/84V/88D/90M mutation to EC50 for wild type HIV1 NL4-3 in HEK293 cells after 48 hrs by replication-deffective luciferase reporter gene-based phenotypic assay; format: functional
[16] = system: Human immunodeficiency virus 1; test: Resistance index, ratio of EC50 for HIV1 with protease 30N/33F/46L/54L/84V/88D mutation to EC50 for wild type HIV1 NL4-3 in HEK293 cells after 48 hrs by replication-deffective luciferase reporter gene-based phenotypic assay; format: functional
[17] = system: Human immunodeficiency virus 1; test: Resistance index, ratio of EC50 for HIV1 with protease 32I/46I/47V/50L mutation to EC50 for wild type HIV1 NL4-3 in HEK293 cells after 48 hrs by replication-deffective luciferase reporter gene-based phenotypic assay; format: functional
[18] = system: Human immunodeficiency virus 1; test: Resistance index, ratio of EC50 for HIV1 with protease 33F/54V/73S/82A/90M mutation to EC50 for wild type HIV1 NL4-3 in HEK293 cells after 48 hrs by replication-deffective luciferase reporter gene-based phenotypic assay; format: functional
[19] = system: Human immunodeficiency virus 1; test: Resistance index, ratio of EC50 for HIV1 with protease 33F/54L/82A/84V mutation to EC50 for wild type HIV1 NL4-3 in HEK293 cells after 48 hrs by replication-deffective luciferase reporter gene-based phenotypic assay; format: functional
[20] = system: Human immunodeficiency virus 1; test: Resistance index, ratio of EC50 for HIV1 with protease 33F/54V/82A/84V mutation to EC50 for wild type HIV1 NL4-3 in HEK293 cells after 48 hrs by replication-deffective luciferase reporter gene-based phenotypic assay; format: functional
[21] = system: Human immunodeficiency virus 1; test: Resistance index, ratio of EC50 for HIV1 with protease 33F/54V/82T/84V/90M mutation to EC50 for wild type HIV1 NL4-3 in HEK293 cells after 48 hrs by replication-deffective luciferase reporter gene-based phenotypic assay; format: functional
[22] = system: Human immunodeficiency virus 1; test: Resistance index, ratio of EC50 for HIV1 with protease 33F/46L/53L/54V/82A mutation to EC50 for wild type HIV1 NL4-3 in HEK293 cells after 48 hrs by replication-deffective luciferase reporter gene-based phenotypic assay; format: functional
[23] = system: Human immunodeficiency virus 1; test: Resistance index, ratio of EC50 for HIV1 with protease 46L/54V/82A/90M mutation to EC50 for wild type HIV1 NL4-3 in HEK293 cells after 48 hrs by replication-deffective luciferase reporter gene-based phenotypic assay; format: functional
[24] = system: Human immunodeficiency virus 1; test: Resistance index, ratio of EC50 for HIV1 with protease 46L/54V/73C/84V/90M mutation to EC50 for wild type HIV1 NL4-3 in HEK293 cells after 48 hrs by replication-deffective luciferase reporter gene-based phenotypic assay; format: functional
[25] = system: Human immunodeficiency virus 1; test: Resistance index, ratio of EC50 for HIV1 with protease 46I/82A/84V/90M mutation to EC50 for wild type HIV1 NL4-3 in HEK293 cells after 48 hrs by replication-deffective luciferase reporter gene-based phenotypic assay; format: functional
[26] = system: Human immunodeficiency virus 1; test: Resistance index, ratio of EC50 for HIV1 with protease 48V/82A/84V/90M mutation to EC50 for wild type HIV1 NL4-3 in HEK293 cells after 48 hrs by replication-deffective luciferase reporter gene-based phenotypic assay; format: functional
[27] = system: Human immunodeficiency virus 1; test: Resistance index, ratio of EC50 for HIV1 with protease 46L/48V/82A/90M mutation to EC50 for wild type HIV1 NL4-3 in HEK293 cells after 48 hrs by replication-deffective luciferase reporter gene-based phenotypic assay; format: functional

SMILES | Ratio EC50 [1] | Ratio EC50 [2] | Ratio EC50 [3] | Ratio EC50 [4] | Ratio EC50 [5] | Ratio EC50 [6] | Ratio EC50 [7] | Ki (Protease) | EC50 [8] | EC50 [9] | Ratio EC50 [10] | Ratio EC50 [11] | Ratio EC50 [12] | Ratio EC50 [13] | Ratio EC50 [14] | Ratio EC50 [15] | Ratio EC50 [16] | Ratio EC50 [17] | Ratio EC50 [18] | Ratio EC50 [19] | other results
Cc1c(O)cccc1C(=O)N[C@@H](CSc1ccccc1)[C@H](O)CN1C[C@H]2CCCC[C@H]2C[C@H]1C(=O)NC(C)(C)C | 14 | 28.5 | 1.9 | 32.9 | 15 | 12.1 | 1.6 | 0.306 nM | 29 nM | 5.8 nM | 27.1 | 27.9 | 25.4 | 3.1 | 5.1 | 10 | 400 | 3.5 | 20 | 17.2 | Ratio EC50 [20]: 5.8; Ratio EC50 [21]: 14.9; Ratio EC50 [22]: 28.3; Ratio EC50 [23]: 14.1; Ratio EC50 [24]: 82.6; Ratio EC50 [25]: 11.2; Ratio EC50 [26]: 27.3; Ratio EC50 [27]: 30.8
COC(=O)N[C@H](C(=O)NCCCC[C@@H](CO)N(CC(C)C)S(=O)(=O)c1ccc(N)cc1)C(c1ccccc1)c1ccccc1 [PPL-100] | 4 | 3.4 | 1.9 | 8.3 | 0.8 | 1.8 | 1.5 | 0.036 nM | 16 nM | 5.3 nM | 4.8 | 6.3 | 1.1 | 1.4 | 4.3 | 5.6 | 23.2 | 1.1 | 5.3 | 31.2 | Ratio EC50 [20]: 3.4; Ratio EC50 [21]: 3.4; Ratio EC50 [22]: 5.5; Ratio EC50 [23]: 3.2; Ratio EC50 [24]: 10.8; Ratio EC50 [25]: 10.1; Ratio EC50 [26]: 13.5; Ratio EC50 [27]: 7.5
COC(=O)N[C@H](C(=O)N[C@@H](Cc1ccccc1)[C@@H](O)CN(Cc1ccc(-c2ccccn2)cc1)NC(=O)[C@@H](NC(=O)OC)C(C)(C)C)C(C)(C)C [ATAZANAVIR] | 67.5 | 7.5 | 1.5 | 33.7 | 8.3 | 3.9 | 0.7 | 0.039 nM | 4 nM | 1.5 nM | 32 | 38 | 28 | 1 | 7.1 | 14.7 | 66.1 | 81.2 | 11.9 | 44.5 | Ratio EC50 [20]: 5.5; Ratio EC50 [21]: 14.1; Ratio EC50 [22]: 22.7; Ratio EC50 [23]: 11.8; Ratio EC50 [24]: 55.2; Ratio EC50 [25]: 3.8; Ratio EC50 [26]: 57.7; Ratio EC50 [27]: 35.4
